This data set in a line: Rat pharmacokinetic studies of prodrug and released riluzole (IV or oral). The format is in vivo, Sprague-Dawley rats. The settings on record: rat, plasma, fasted male Sprague Dawley rats; for clearance: read-out: Compound of the disclosure Cl (converted); for Vd: read-out: Compound of the disclosure Vss; for half-life: read-out: Compound of the disclosure t1/2 (converted). The method, then: Rat Pharmacokinetic Studies of the Compounds of the Disclosure:
Blood samples were collected at pre-determined time points including a 0 h time point and usually between 7 and 8 additional time points not exceeding a 24 h period.
Plasma samples were extracted and analyzed using the methods described in Plasma Sample Extraction and Analysis. All data are expressed as ng/mL of the free base. Samples that were below the limit of quantification (0.5 ng/mL) were not used in the calculation of averages.
Pharmacokinetic parameters were calculated from the time course of the plasmaconcentrations. Pharmacokinetic parameters were determined with Phoenix Winnonlin (v6.3) software using a non-compartmental model. The maximum plasma concentration (Cmax) and time to the maximum plasma concentration (Tmax) of the compound of the disclosure were observed from the data. The area under the concentration-time curve (AUC) of the compound of the disclosure was calculated using the trapezoidal formula with calculation to the last quantifiable data point, and to infinity if applicable. Plasma half-life (t½) was calculated from 0.693/slope of the terminal elimination phase. Mean residence time, MRT, was calculated by dividing the area under the moment curve (AUMC) by the AUC. Any samples below the limit of quantitation (0.5 ng/mL) were treated as zero for pharmacokinetic data analysis.
Plasma Sample Extraction and Analysis:
Analytical stock solutions (1.00 mg/mL of the free compound of the disclosure) were prepared in DMSO. Standards were prepared in diluted matrix containing 1 part 10% formic acid and 9 parts Sprague-Dawley rat plasma containing sodium heparin as the anticoagulant (pre-diluted with 1 part of 0.5M citric acid and 9 parts whole blood). Working solutions were prepared in 50:50 acetonitrile:water. Working solutions were then added to plasma to make calibration standards to final concentrations of 1000, 500, 100, 50, 10, 5, 1, and 0.5 ng/mL. Standards contained both the test article and riluzole. Standards were treated identically to the study samples.
Plasma samples were extracted via acetonitrile precipitation on a Tomtec Quadra 96-Model 320 liquid handling system in a 96-well plate format.

Where [1] appears, read: IV, prodrug dose 2.8 mg/Kg, read-out: Compound of the disclosure AUClast.

Like-named read-outs stand apart in the source and are kept apart here.

For `CCNCC(=O)N1CCC[C@@H]1C(=O)Nc1nc2ccc(OC(F)(F)F)cc2s1` [Example 52, (R)-1-N-ethylglycinyl-N-(6-(trifluoromethoxy)benzo [d]thiazol-2-yl) pyrrolidine-2-carboxamide], the AUC(0-t) under setting [1] stood at 3620 ng·h/mL. Moreover, where the note is “IV, prodrug dose 2.8 mg/Kg”, the clearance is 9 mL/min/kg, the Vd worked out at 3.55 L/kg and the half-life was 4.75 h.

On to `CN(CC(=O)Nc1nc2ccc(OC(F)(F)F)cc2s1)C(=O)CNC1COC1` [Example 234, N-Methyl-2-[(oxetan-3-yl)amino]-N-({[6-(trifluoromethoxy)-1,3-benzothiazol-2-yl]carbamoyl}methyl)acetamide], for which the AUC(0-t) under setting [1] was 3240 ng·h/mL. Besides, where the note is “IV, prodrug dose 2.8 mg/Kg”, the clearance was 14.2 mL/min/kg, the Vd was 1.1 L/kg and the half-life is 1.5 h.

For the compound `CN(CC(=O)Nc1nc2ccc(OC(F)(F)F)cc2s1)C(=O)C1(CN)CC1` [Example 119, 1-(aminomethyl)-N-methyl-N-(2-oxo-2-((6-(trifluoromethoxy)benzo[d]thiazol-2-yl)amino)ethyl)cyclopropane-1-carboxamide], the AUC(0-t) under setting [1] was determined as 1720 ng·h/mL. Besides, for the setting “IV, prodrug dose 2.8 mg/Kg”, the clearance was 27.2 mL/min/kg, the Vd came to 4.7 L/kg and the half-life was 9.3 h.

Regarding `CN(CC(=O)Nc1nc2ccc(OC(F)(F)F)cc2s1)C(=O)C(C)(C)CN` [Example 118, 3-Amino-N,2,2-trimethyl-N-(2-oxo-2-((6-(trifluoromethoxy)benzo[d]thiazol-2-yl)amino)ethyl)propanamide], the AUC(0-t) under setting [1] is 2480 ng·h/mL. Further, where the note is “IV, prodrug dose 2.8 mg/Kg”, the clearance is 18.8 mL/min/kg, the Vd was found to be 3.35 L/kg and the half-life was 10.4 h.

For `NCC(=O)NC1(C(=O)Nc2nc3ccc(OC(F)(F)F)cc3s2)CCC1` [Example 82, 1-(2-aminoacetamido)-N-(6-(trifluoromethoxy)benzo[d]thiazol-2-yl)cyclobutane-1-carboxamide], under setting [1], the AUC(0-t) stood at 663 ng·h/mL. Moreover, where the note is “IV, prodrug dose 2.8 mg/Kg”, the clearance is 71.3 mL/min/kg, the Vd worked out at 4.14 L/kg and the half-life was 1.03 h.

Turning to `CNCC(=O)NC1(C(=O)Nc2nc3ccc(OC(F)(F)F)cc3s2)CCC1` [Example 83, 1-(2-(methylamino)acetamido)-N-(6-(trifluoromethoxy)benzo[d]thiazol-2-yl)cyclobutane-1-carboxamide], under “IV, prodrug dose 1.8 mg/Kg, read-out: Compound of the disclosure AUClast”, the AUC(0-t) was 1720 ng·h/mL. Besides, for the setting “IV, prodrug dose 1.8 mg/Kg”, the clearance is 11.3 mL/min/kg, the Vd is 5.06 L/kg and the half-life is 5.56 h.

Take `CNCC(=O)NC(C)(C)C(=O)Nc1nc2ccc(OC(F)(F)F)cc2s1` [Example 111, 2-methyl-2-(2-(methylamino)acetamido)-N-(6-(trifluoromethoxy)benzo[d]thiazol-2-yl)propanamide]: the AUC(0-t) under setting [1] worked out at 4650 ng·h/mL. In addition, under “IV, prodrug dose 2.8 mg/Kg”, the clearance is 5.75 mL/min/kg, the Vd was determined as 3.19 L/kg and the half-life is 6.51 h.

Take `CN(CC(=O)Nc1nc2ccc(OC(F)(F)F)cc2s1)C(=O)CNC1CNC1` [Example 212, 2-[(Azetidin-3-yl)amino]-N-methyl-N-({[6-(trifluoromethoxy)-1,3-benzothiazol-2-yl]carbamoyl}methyl)acetamide]: the AUC(0-t) (IV, prodrug dose 1.4 mg/Kg, read-out: Compound of the disclosure AUClast) was found to be 218 ng·h/mL. In addition, where the note is “IV, prodrug dose 1.4 mg/Kg”, the clearance was 104 mL/min/kg, the Vd worked out at 6.21 L/kg and the half-life was 2.43 h.

As to `CCNCC(=O)N(C)CC(=O)Nc1nc2ccc(OC(F)(F)F)cc2s1` [Example 123, 2-(ethylamino)-N-methyl-N-(2-oxo-2-((6-(trifluoromethoxy)benzo[d]thiazol-2-yl)amino)ethyl)acetamide], the AUC(0-t) under setting [1] worked out at 787 ng·h/mL. In addition, under “IV, prodrug dose 2.8 mg/Kg”, the clearance is 59 mL/min/kg, the Vd was 2.04 L/kg and the half-life was 0.68 h.

With `CC(C)(CN)C(=O)N1CCC[C@H]1C(=O)Nc1nc2ccc(OC(F)(F)F)cc2s1` [Example 59, (S)-1-(3-amino-2,2-dimethylpropanoyl)-N-(6-(trifluoromethoxy)benzo[d]thiazol-2-yl)pyrrolidine-2-carboxamide], under setting [1], the AUC(0-t) stood at 2770 ng·h/mL. Besides, under “IV, prodrug dose 2.8 mg/Kg”, the clearance is 10.7 mL/min/kg, the Vd was 5.11 L/kg and the half-life is 6.2 h.

`CN(CC(=O)Nc1nc2ccc(OC(F)(F)F)cc2s1)C(=O)C1(CN)CCCCC1` [Example 121, 1-(aminomethyl)-N-methyl-N-(2-oxo-2-((6-(trifluoromethoxy)benzo[d]thiazol-2-yl)amino)ethyl)cyclohexane-1-carboxamide]: under setting [1], the AUC(0-t) stood at 1290 ng·h/mL. For the setting “IV, prodrug dose 2.8 mg/Kg”, the clearance was 36.3 mL/min/kg, the Vd came out at 6.15 L/kg and the half-life was 4.83 h.

For `CC(C)NCC(=O)N(C)CC(=O)Nc1nc2ccc(OC(F)(F)F)cc2s1` [Example 124, 2-(isopropylamino)-N-methyl-N-(2-oxo-2-((6-(trifluoromethoxy)benzo[d]thiazol-2-yl)amino)ethyl)acetamide], the AUC(0-t) under setting [1] is 580 ng·h/mL. In addition, under “IV, prodrug dose 2.8 mg/Kg”, the clearance is 81.2 mL/min/kg, the Vd stood at 2.67 L/kg and the half-life is 0.63 h.

Regarding `CN(CC(=O)Nc1nc2ccc(OC(F)(F)F)cc2s1)C(=O)C1(CN)CCCC1` [Example 120, 1-(aminomethyl)-N-methyl-N-(2-oxo-2-((6-(trifluoromethoxy)benzo[d]thiazol-2-yl)amino)ethyl)cyclopentane-1-carboxamide], under setting [1], the AUC(0-t) was 2460 ng·h/mL. Where the note is “IV, prodrug dose 2.8 mg/Kg”, the clearance was 19 mL/min/kg, the Vd came out at 3.63 L/kg and the half-life is 8.66 h.

As usually defined, the Cmax is the maximum level reached in the sampled fluid or tissue. A word on the Tmax: it is the time at which the peak concentration occurs. With `CN(CC(=O)Nc1nc2ccc(OC(F)(F)F)cc2s1)C(=O)CNC1CCNCC1` [Example 216, N-Bethyl-2-[(piperidin-4-yl)amino]-N-({[6-(trifluoromethoxy)-1,3-benzothiazol-2-yl]carbamoyl}methyl)acetamide], the AUC(0-t) under setting [1] came to 1910 ng·h/mL. Moreover, where the note is “IV, prodrug dose 2.8 mg/Kg”, the clearance was 23 mL/min/kg, the Vd was 2.53 L/kg and the half-life is 3.98 h. Besides, for the setting “PO 5 mg/kg”, the Cmax is 2.96 ng/mL and the Tmax was determined as 2.17 h. Also, the AUC(0-t) (PO 5 mg/kg, read-out: Prodrug AUClast (Mean)) is 16.6 ng·h/mL.

Regarding `NCC1(C(=O)N2CCC[C@@H]2C(=O)Nc2nc3ccc(OC(F)(F)F)cc3s2)CCCCC1` [Example 173, (R)-1-(1-(aminomethyl)cyclohexane-1-carbonyl)-N-(6-(trifluoromethoxy)benzo[d]thiazol-2-yl)pyrrolidine-2-carboxamide], under setting [1], the AUC(0-t) worked out at 1440 ng·h/mL. For the same compound, under “IV, prodrug dose 2.8 mg/Kg”, the clearance was 22.3 mL/min/kg, the Vd is 9.66 L/kg and the half-life was 6.7 h.

On to `CC(C)NCC(=O)NC(C)(C)C(=O)Nc1nc2ccc(OC(F)(F)F)cc2s1` [Example 113, 2-(2-(isopropylamino)acetamido)-2-methyl-N-(6-(trifluoromethoxy)benzo[d]thiazol-2-yl)propanamide], for which the AUC(0-t) under setting [1] came to 2760 ng·h/mL. For the setting “IV, prodrug dose 2.8 mg/Kg”, the clearance was 11.5 mL/min/kg, the Vd is 4.88 L/kg and the half-life is 5.45 h.

In the case of `CNCC(=O)N(C)CC(=O)Nc1nc2ccc(OC(F)(F)F)cc2s1` [Example 122, N-methyl-2-(methylamino)-N-(2-oxo-2-((6-(trifluoromethoxy)benzo[d]thiazol-2-yl)amino)ethyl)acetamide], the AUC(0-t) under setting [1] was 219 ng·h/mL. Further, for the setting “IV, prodrug dose 2.8 mg/Kg”, the clearance is 66.3 mL/min/kg, the Vd turned out to be 0.861 L/kg and the half-life was 0.28 h.

Source of the values: patent US10639298B2 (Biohaven Pharmaceutical Holding Company Ltd., priority 2015, dated 2020).
